Patent US7531312B2, “Simplified biological evaluation method of natural and artificial chemicals by using DNA injury index and apparatus therefor” (TAS Project Co., Ltd., priority 2000, dated 2009)
Like-named read-outs stand apart in the source and are kept apart here.

Assays:
2′-deoxyguanosine (dG) [1] = experiment: 8OHdG produced from dG in presence of potassium bromate as active oxygen generator (Example 8); assay type: biochemical; conditions: with KBrO3, ultrapure water 2.699
2′-deoxyguanosine (dG) [2] = conditions: KBrO3 30 minutes; for dG: pure water ctrl 1.067; for 8OHdG/dG × 10^−3: pure water ctrl 3.542; for 8OHdG × 10^−3: pure water ctrl 3.779; for Relative initial magnification: pure water ctrl 13.47
2′-deoxyguanosine (dG) [3] = experiment: 8OHdG produced from added dG, standing at room temperature or UV irradiation (Examples 1-7); conditions: for evaluation in words: oxidation induction or antioxidant ability toward dG: conclusions of Examples 2-7; for 8OHdG concentration, 90 Minutes' UV irradiation: ultrapure water 0.529;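 as to all read-outs here: Cell-free test: dG in test solution, held at room temperature or exposed to 254 nm UV, then 8OHdG quantified by HPLC with electrochemical detection, compared against dG in ultrapure water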
Method: Separately, the amount of 8OHdG after an ultrapure water solution of dG is left to stand under the same conditions as above for a predetermined time is measured (this value is defined as B). If A is greater than B, the test substance is evaluated to have oxidation induction ability and conversely if A is smaller than B, the test substance is evaluated to have antioxidant ability. In either case, it is judged that the greater the difference is, the greater degree of oxidation induction ability or antioxidant capability the test substance has.
Then, 20 μl of 200 μg/ml dG (dissolved in ultrapure water) was added to each well and one of the plates was left to stand as it was at room temperature for 90 minutes and the other plate was irradiated with UV light (254 nm, 860 μW/cm^2) for 90 minutes in a UV light irradiation box. […] Subsequently, nucleosides in the both were quantified by use of the UV light absorption analyzer connected to the HPLC and the electrochemical detector.
Solutions of predetermined concentrations of vitamin C (VC), vitamin E (VE), catechin (Cate) and tannic acid (Tan) were prepared and 180 μl portions were injected into each well of two 99-well plastic plates. Then, 20 μl of 200 μg/ml dG (dissolved in ultrapure water) was added to each well and one of the plates was left to stand as it was at room temperature for 90 minutes and the other plate was irradiated with UV light (254 nm, 860 μW/cm^2) for 90 minutes in a UV light irradiation box.
Then, 20 μl of 200 μg/ml dG (dissolved in ultrapure water) was added to each well and one of the plates was left to stand as it was at room temperature for 90 minutes and another plate was left to stand similarly at room temperature for 24 hours. The remaining three plates were irradiated with UV light (254 nm, 860 μW/cm^2) for 60 minutes, 90 minutes and 120 minutes, respectively, in a UV light irradiation box.
Solutions of predetermined concentrations of glucose (Glu), raffinose (Raffi) and sucrose (Suc) were prepared and 180 μl portions thereof were injected into each well of four 99-well plastic plates. Then, 20 μl of 200 μg/ml dG (dissolved in ultrapure water) was added to each well and one of the plates was left to stand as it was at room temperature for 90 minutes. The remaining three plates were irradiated with UV light (254 nm, 860 μW/cm^2) for 60 minutes, 90 minutes and 120 minutes, respectively, in a UV light irradiation box.
Then, 20 μl of 200 μg/ml dG (dissolved in ultrapure water) was added to each well and one of the plates was left to stand as it was at room temperature for 90 minutes and the other plate was irradiated with UV light (254 nm, 860 μW/cm^2) for 90 minutes in a UV light irradiation box.
Solutions of various concentrations of uric acid (dissolving fluid: distilled water+0.025% FBS) were prepared and 180 μl portions thereof were injected into each well of two 99-well plastic plates. Then, 20 μl of 200 μg/ml dG (dissolved in ultrapure water) was added to each well and one of the plates was left to stand as it was at room temperature for 90 minutes and the other plate was irradiated with UV light (254 nm, 860 μW/cm^2) for 90 minutes in a UV light irradiation box.

[4] = reported; cited from earlier work
[5] = 5%, Table 3, ultrapure water 0.382
[6] = 20%, Table 3, ultrapure water 0.382

O=C([O-])CN(CCN(CC(=O)[O-])CC(=O)[O-])CC(=O)[O-].[Na+].[Na+].[Na+].[Na+] [EDTA, sodium ethylenediaminetetraacetate]
8OHdG concentration, 30 Minutes' standing (2′-deoxyguanosine (dG) [1]; 1 mM): 0.784 ng/mL | dG (2′-deoxyguanosine (dG) [2]; 1 mM): 0.997 VS | 8OHdG/dG × 10^−3 (2′-deoxyguanosine (dG) [2]; 1 mM): 1.101 × 10^−3 | 8OHdG × 10^−3 (2′-deoxyguanosine (dG) [2]; 1 mM): 1.098 mVs | Relative initial magnification (2′-deoxyguanosine (dG) [2]; 1 mM): 4.19 times

OCC(O)CO [Gly, glycerol]
8OHdG concentration, 30 Minutes' standing (2′-deoxyguanosine (dG) [1]; 10%): 1.123 ng/mL | dG (2′-deoxyguanosine (dG) [2]; 10%): 1.044 VS | 8OHdG/dG × 10^−3 (2′-deoxyguanosine (dG) [2]; 10%): 1.506 × 10^−3 | 8OHdG × 10^−3 (2′-deoxyguanosine (dG) [2]; 10%): 1.572 mVs

CO [Meth, methanol]
8OHdG concentration, 30 Minutes' standing (2′-deoxyguanosine (dG) [1]; 1%): 2.059 ng/mL | 8OHdG concentration, 30 Minutes' standing (2′-deoxyguanosine (dG) [1]; 2.5%): 1.685 ng/mL | 8OHdG concentration, UV irradiation 60 minutes (2′-deoxyguanosine (dG) [3]; 5%, Table 3, ultrapure water 0.231): 0.181 ng/mL | 8OHdG concentration, Standing 24 hours (2′-deoxyguanosine (dG) [3]; [5]): 0.336 ng/mL | 8OHdG concentration, UV irradiation 90 minutes (2′-deoxyguanosine (dG) [3]; [5]): 0.209 ng/mL | 8OHdG concentration, UV irradiation 120 minutes (2′-deoxyguanosine (dG) [3]; 5%, Table 3, ultrapure water 0.645): 0.332 ng/mL | 8OHdG concentration, UV irradiation 60 minutes (2′-deoxyguanosine (dG) [3]; 20%, Table 3, ultrapure water 0.231): 0.324 ng/mL | 8OHdG concentration, Standing 24 hours (2′-deoxyguanosine (dG) [3]; [6]): 0.274 ng/mL | 8OHdG concentration, UV irradiation 90 minutes (2′-deoxyguanosine (dG) [3]; [6]): 0.395 ng/mL | 8OHdG concentration, UV irradiation 120 minutes (2′-deoxyguanosine (dG) [3]; 20%, Table 3, ultrapure water 0.645): 0.518 ng/mL | evaluation in words: oxidation induction or antioxidant ability toward dG (2′-deoxyguanosine (dG) [3]): potent antioxidant ability | dG (2′-deoxyguanosine (dG) [2]; 1%): 1.04 VS | 8OHdG/dG × 10^−3 (2′-deoxyguanosine (dG) [2]; 1%): 2.771 × 10^−3 | dG (2′-deoxyguanosine (dG) [2]; 5%): 1.054 VS | 8OHdG/dG × 10^−3 (2′-deoxyguanosine (dG) [2]; 5%): 2.238 × 10^−3 | 8OHdG × 10^−3 (2′-deoxyguanosine (dG) [2]; 5%): 2.359 mVs

Oc1c(Cl)c(Cl)c(Cl)c(Cl)c1Cl [PCP, pentachlorophenol]
safety concentration [4]: 5 mg/kg | 8OHdG concentration, 90 Minutes' standing (2′-deoxyguanosine (dG) [3]; 0.0005 ppm, Table 1, ultrapure water 0.267): 0.260 ng/mL | 8OHdG concentration, 90 Minutes' UV irradiation (2′-deoxyguanosine (dG) [3]; 0.0005 ppm, Table 1): 0.585 ng/mL | 8OHdG concentration, 90 Minutes' standing (2′-deoxyguanosine (dG) [3]; 0.005 ppm, Table 1, ultrapure water 0.267): 0.236 ng/mL | 8OHdG concentration, 90 Minutes' UV irradiation (2′-deoxyguanosine (dG) [3]; 0.005 ppm, Table 1): 0.451 ng/mL | 8OHdG concentration, 90 Minutes' standing (2′-deoxyguanosine (dG) [3]; 0.05 ppm, Table 1, ultrapure water 0.267): 0.285 ng/mL | 8OHdG concentration, 90 Minutes' UV irradiation (2′-deoxyguanosine (dG) [3]; 0.05 ppm, Table 1): 0.431 ng/mL | 8OHdG concentration, 90 Minutes' standing (2′-deoxyguanosine (dG) [3]; 0.5 ppm, Table 1, ultrapure water 0.267): 0.282 ng/mL | 8OHdG concentration, 90 Minutes' UV irradiation (2′-deoxyguanosine (dG) [3]; 0.5 ppm, Table 1): 0.396 ng/mL | 8OHdG concentration, 90 Minutes' standing (2′-deoxyguanosine (dG) [3]; 5 ppm, Table 1, ultrapure water 0.267): 0.340 ng/mL | 8OHdG concentration, 90 Minutes' UV irradiation (2′-deoxyguanosine (dG) [3]; 5 ppm, Table 1): 5.730 ng/mL | concentration at which oxidation injury activity due to UV light is elevated (harmfulness increased) (2′-deoxyguanosine (dG) [3]; Example 1, 90 minutes UV): 5 ppm

OC[C@H]1O[C@H](OC[C@H]2O[C@H](O[C@]3(CO)O[C@H](CO)[C@@H](O)[C@@H]3O)[C@H](O)[C@@H](O)[C@@H]2O)[C@H](O)[C@@H](O)[C@H]1O [Raffi, raffinose]
8OHdG concentration, 90 Minutes' standing (2′-deoxyguanosine (dG) [3]; 0.1 μg/ml, Table 4, ultrapure water 0.195): 0.205 ng/mL | 8OHdG concentration, UV irradiation 60 minutes (2′-deoxyguanosine (dG) [3]; 0.1 μg/ml, Table 4, ultrapure water 0.392): 0.375 ng/mL | 8OHdG concentration, UV irradiation 90 minutes (2′-deoxyguanosine (dG) [3]; 0.1 μg/ml, Table 4, ultrapure water 0.901): 0.689 ng/mL | 8OHdG concentration, UV irradiation 120 minutes (2′-deoxyguanosine (dG) [3]; 0.1 μg/ml, Table 4, ultrapure water 1.183): 1.127 ng/mL | 8OHdG concentration, 90 Minutes' standing (2′-deoxyguanosine (dG) [3]; 1 μg/ml, Table 4, ultrapure water 0.195): 0.185 ng/mL | 8OHdG concentration, UV irradiation 60 minutes (2′-deoxyguanosine (dG) [3]; 1 μg/ml, Table 4, ultrapure water 0.392): 0.304 ng/mL | 8OHdG concentration, UV irradiation 90 minutes (2′-deoxyguanosine (dG) [3]; 1 μg/ml, Table 4, ultrapure water 0.901): 0.854 ng/mL | 8OHdG concentration, UV irradiation 120 minutes (2′-deoxyguanosine (dG) [3]; 1 μg/ml, Table 4, ultrapure water 1.183): 1.049 ng/mL | 8OHdG concentration, 90 Minutes' standing (2′-deoxyguanosine (dG) [3]; 10 μg/ml, Table 4, ultrapure water 0.195): 0.405 ng/mL | 8OHdG concentration, UV irradiation 60 minutes (2′-deoxyguanosine (dG) [3]; 10 μg/ml, Table 4, ultrapure water 0.392): 0.281 ng/mL | 8OHdG concentration, UV irradiation 90 minutes (2′-deoxyguanosine (dG) [3]; 10 μg/ml, Table 4, ultrapure water 0.901): 0.626 ng/mL | 8OHdG concentration, UV irradiation 120 minutes (2′-deoxyguanosine (dG) [3]; 10 μg/ml, Table 4, ultrapure water 1.183): 1.314 ng/mL | 8OHdG concentration, 90 Minutes' standing (2′-deoxyguanosine (dG) [3]; 100 μg/ml, Table 4, ultrapure water 0.195): 0.455 ng/mL | 8OHdG concentration, UV irradiation 60 minutes (2′-deoxyguanosine (dG) [3]; 100 μg/ml, Table 4, ultrapure water 0.392): 0.158 ng/mL | 8OHdG concentration, UV irradiation 90 minutes (2′-deoxyguanosine (dG) [3]; 100 μg/ml, Table 4, ultrapure water 0.901): 0.370 ng/mL | 8OHdG concentration, UV irradiation 120 minutes (2′-deoxyguanosine (dG) [3]; 100 μg/ml, Table 4, ultrapure water 1.183): 0.503 ng/mL | 8OHdG concentration, 90 Minutes' standing (2′-deoxyguanosine (dG) [3]; 1 mg/ml, Table 4, ultrapure water 0.195): 0.340 ng/mL | 8OHdG concentration, UV irradiation 60 minutes (2′-deoxyguanosine (dG) [3]; 1 mg/ml, Table 4, ultrapure water 0.392): 0.115 ng/mL | 8OHdG concentration, UV irradiation 90 minutes (2′-deoxyguanosine (dG) [3]; 1 mg/ml, Table 4, ultrapure water 0.901): 0.176 ng/mL | 8OHdG concentration, UV irradiation 120 minutes (2′-deoxyguanosine (dG) [3]; 1 mg/ml, Table 4, ultrapure water 1.183): 0.240 ng/mL | concentration at which antioxidant ability is effective (2′-deoxyguanosine (dG) [3]; Example 4): ≥ 10 µg/mL | evaluation in words: oxidation induction or antioxidant ability toward dG (2′-deoxyguanosine (dG) [3]): Glu>Raffi≈Suc | dG (2′-deoxyguanosine (dG) [2]; 1 mg/ml): 0.926 VS | 8OHdG/dG × 10^−3 (2′-deoxyguanosine (dG) [2]; 1 mg/ml): 2.513 × 10^−3 | 8OHdG × 10^−3 (2′-deoxyguanosine (dG) [2]; 1 mg/ml): 2.327 mVs | Relative initial magnification (2′-deoxyguanosine (dG) [2]; 1 mg/ml): 9.55 times | dG (2′-deoxyguanosine (dG) [2]; 10 mg/ml): 1.045 VS | 8OHdG/dG × 10^−3 (2′-deoxyguanosine (dG) [2]; 10 mg/ml): 3.137 × 10^−3 | 8OHdG × 10^−3 (2′-deoxyguanosine (dG) [2]; 10 mg/ml): 3.278 mVs | Relative initial magnification (2′-deoxyguanosine (dG) [2]; 10 mg/ml): 11.93 times
